For 16 molecules, Ki results are on record in patent US12509457B2, “Bicyclic nitrogen containing heterocycles as inhibitors of salt-induced kinase SIK2” (priority 2019, dated 2025).

In general, Ki refers to the dissociation constant of the complex between target and ligand, obtained from inhibition or displacement.

Where two headings read alike, the source gives them in different places.

Format in all cases: biochemical
One experiment deals with SIK2 (Homo sapiens, UniProt Q9H0K1). Nature of the experiment: SIK2 kinase assay, IMAP fluorescence polarization. As to conditions: 50 or 100 μM ATP; average; read-out: SIK2-AVERAGE Ki.
A further experiment has as its target SIK1 (Homo sapiens, UniProt P57059). Nature of the experiment: SIK1 kinase assay, IMAP fluorescence polarization. As to conditions: 50 or 100 μM ATP; average; read-out: SIK1-AVERAGE Ki.
The next experiment has as its target SIK3 (Homo sapiens, UniProt Q9Y2K2). Nature of the experiment: SIK3 kinase assay, IMAP fluorescence polarization. As to conditions: 50 or 100 μM ATP; average; read-out: SIK3-AVERAGE Ki. For orientation: In fluorescence polarisation assays a small probe gives low polarisation when free and higher when bound to something large.
Another experiment has as its target Abl (Homo sapiens, UniProt P00519). Put plainly: Abl kinase assay, IMAP fluorescence polarization. As to conditions: 50 or 100 μM ATP; average; read-out: Abl-AVERAGE Ki.
A further experiment addresses Src (Homo sapiens, UniProt P12931). Put plainly: Src kinase assay, IMAP fluorescence polarization. As to conditions: 50 or 100 μM ATP; average; read-out: Src-AVERAGE Ki.
For a further experiment, the target named is EPHA2 (Homo sapiens, UniProt P29317). Nature of the experiment: EPHA2 kinase assay, IMAP fluorescence polarization.
Chain of EPHA2 (P29317 24-976): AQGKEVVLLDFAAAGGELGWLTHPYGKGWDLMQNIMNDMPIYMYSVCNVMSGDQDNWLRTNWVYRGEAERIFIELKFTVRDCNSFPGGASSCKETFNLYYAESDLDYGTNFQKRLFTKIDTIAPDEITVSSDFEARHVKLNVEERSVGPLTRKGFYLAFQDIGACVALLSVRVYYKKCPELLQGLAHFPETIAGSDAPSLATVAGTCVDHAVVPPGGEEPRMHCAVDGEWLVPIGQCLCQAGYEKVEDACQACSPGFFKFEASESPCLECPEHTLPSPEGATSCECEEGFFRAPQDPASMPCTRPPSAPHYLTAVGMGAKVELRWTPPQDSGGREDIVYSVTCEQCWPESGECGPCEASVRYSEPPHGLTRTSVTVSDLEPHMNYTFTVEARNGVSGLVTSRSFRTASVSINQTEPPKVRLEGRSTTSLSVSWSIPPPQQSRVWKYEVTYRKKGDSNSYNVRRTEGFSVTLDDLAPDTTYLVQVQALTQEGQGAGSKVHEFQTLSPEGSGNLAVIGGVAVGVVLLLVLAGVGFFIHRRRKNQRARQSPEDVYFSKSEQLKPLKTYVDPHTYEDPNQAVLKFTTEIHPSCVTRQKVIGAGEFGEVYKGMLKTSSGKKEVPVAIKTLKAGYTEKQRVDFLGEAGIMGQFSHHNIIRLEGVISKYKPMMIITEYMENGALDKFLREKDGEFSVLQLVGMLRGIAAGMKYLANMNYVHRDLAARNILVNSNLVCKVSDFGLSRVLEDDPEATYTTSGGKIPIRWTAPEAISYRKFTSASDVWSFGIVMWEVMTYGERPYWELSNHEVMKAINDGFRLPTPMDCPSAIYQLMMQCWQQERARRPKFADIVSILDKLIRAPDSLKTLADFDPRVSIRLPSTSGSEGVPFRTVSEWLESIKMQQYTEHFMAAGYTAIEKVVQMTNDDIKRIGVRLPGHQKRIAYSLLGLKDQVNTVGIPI

Chain of SIK3 (Q9Y2K2 whole entry): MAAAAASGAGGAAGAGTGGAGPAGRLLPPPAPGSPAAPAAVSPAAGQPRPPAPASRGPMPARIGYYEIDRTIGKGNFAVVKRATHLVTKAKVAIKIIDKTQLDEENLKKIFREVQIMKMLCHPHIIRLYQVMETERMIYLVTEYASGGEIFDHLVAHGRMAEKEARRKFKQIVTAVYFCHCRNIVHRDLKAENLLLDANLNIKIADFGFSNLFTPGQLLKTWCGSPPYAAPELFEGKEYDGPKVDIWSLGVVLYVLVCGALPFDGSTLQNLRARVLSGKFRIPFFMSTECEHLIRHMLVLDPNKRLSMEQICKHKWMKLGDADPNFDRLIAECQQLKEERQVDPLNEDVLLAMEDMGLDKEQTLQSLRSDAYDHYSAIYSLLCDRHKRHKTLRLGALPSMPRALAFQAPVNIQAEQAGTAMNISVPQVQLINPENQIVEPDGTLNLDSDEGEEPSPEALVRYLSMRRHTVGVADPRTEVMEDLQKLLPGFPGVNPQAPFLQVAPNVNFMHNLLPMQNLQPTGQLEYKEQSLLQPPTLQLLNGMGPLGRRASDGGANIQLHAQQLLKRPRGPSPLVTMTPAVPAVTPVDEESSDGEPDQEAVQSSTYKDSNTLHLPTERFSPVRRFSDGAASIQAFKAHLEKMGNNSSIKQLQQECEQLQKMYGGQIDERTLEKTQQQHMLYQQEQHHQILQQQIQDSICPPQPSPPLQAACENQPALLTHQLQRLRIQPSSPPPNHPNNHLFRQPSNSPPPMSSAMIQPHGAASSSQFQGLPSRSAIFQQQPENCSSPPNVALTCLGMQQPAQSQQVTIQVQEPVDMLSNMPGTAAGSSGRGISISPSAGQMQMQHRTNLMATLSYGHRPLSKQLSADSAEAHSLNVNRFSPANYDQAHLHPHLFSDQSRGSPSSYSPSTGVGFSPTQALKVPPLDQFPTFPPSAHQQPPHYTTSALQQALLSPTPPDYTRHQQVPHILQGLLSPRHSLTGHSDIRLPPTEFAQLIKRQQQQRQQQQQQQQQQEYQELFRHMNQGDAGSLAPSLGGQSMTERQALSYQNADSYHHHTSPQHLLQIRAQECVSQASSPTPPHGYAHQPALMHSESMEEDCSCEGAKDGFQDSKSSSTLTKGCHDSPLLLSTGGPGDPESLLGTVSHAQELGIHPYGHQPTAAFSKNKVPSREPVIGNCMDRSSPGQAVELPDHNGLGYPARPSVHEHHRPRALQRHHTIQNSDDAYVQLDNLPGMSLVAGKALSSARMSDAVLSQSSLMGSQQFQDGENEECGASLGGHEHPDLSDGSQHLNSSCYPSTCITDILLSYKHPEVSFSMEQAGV
Chain of SIK2 (Q9H0K1 whole entry): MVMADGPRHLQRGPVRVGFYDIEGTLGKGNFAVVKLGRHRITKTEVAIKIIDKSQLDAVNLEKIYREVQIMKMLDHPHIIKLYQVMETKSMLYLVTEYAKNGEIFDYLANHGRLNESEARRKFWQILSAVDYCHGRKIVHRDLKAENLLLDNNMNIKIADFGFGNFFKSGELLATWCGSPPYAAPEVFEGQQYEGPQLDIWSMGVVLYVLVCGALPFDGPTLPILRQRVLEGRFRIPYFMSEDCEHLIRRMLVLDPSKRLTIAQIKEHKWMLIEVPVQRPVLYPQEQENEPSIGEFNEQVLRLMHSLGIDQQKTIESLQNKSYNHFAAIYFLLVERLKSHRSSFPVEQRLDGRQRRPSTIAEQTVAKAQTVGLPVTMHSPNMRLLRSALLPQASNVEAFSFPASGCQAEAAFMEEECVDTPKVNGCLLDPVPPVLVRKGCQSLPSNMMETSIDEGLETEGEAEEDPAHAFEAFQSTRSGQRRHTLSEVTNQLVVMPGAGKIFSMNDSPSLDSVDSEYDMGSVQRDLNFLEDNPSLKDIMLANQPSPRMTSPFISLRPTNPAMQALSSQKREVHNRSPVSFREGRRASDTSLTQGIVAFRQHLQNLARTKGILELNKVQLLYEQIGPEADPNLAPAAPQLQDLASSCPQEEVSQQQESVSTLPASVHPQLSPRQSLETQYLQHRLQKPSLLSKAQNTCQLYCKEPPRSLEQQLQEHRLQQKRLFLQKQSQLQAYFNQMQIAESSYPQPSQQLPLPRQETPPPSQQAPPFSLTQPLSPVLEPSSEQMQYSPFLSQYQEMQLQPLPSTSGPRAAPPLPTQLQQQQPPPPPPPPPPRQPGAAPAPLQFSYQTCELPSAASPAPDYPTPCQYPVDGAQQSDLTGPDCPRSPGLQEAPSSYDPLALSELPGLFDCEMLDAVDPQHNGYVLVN
Chain of Src (P12931 whole entry): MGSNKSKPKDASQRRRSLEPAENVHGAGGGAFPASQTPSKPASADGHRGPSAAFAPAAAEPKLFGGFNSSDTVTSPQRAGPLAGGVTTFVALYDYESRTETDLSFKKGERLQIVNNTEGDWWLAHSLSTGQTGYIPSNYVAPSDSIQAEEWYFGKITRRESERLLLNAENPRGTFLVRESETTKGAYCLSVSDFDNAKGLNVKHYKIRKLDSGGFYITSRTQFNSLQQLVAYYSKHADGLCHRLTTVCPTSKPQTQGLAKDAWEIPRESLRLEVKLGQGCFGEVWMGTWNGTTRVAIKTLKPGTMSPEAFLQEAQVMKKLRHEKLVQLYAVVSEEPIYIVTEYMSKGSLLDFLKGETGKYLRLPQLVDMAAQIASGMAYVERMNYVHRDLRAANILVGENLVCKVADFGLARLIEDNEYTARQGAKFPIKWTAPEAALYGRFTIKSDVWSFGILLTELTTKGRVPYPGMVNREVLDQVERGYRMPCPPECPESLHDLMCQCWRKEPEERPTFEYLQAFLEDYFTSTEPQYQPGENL
Chain of Abl (P00519 whole entry): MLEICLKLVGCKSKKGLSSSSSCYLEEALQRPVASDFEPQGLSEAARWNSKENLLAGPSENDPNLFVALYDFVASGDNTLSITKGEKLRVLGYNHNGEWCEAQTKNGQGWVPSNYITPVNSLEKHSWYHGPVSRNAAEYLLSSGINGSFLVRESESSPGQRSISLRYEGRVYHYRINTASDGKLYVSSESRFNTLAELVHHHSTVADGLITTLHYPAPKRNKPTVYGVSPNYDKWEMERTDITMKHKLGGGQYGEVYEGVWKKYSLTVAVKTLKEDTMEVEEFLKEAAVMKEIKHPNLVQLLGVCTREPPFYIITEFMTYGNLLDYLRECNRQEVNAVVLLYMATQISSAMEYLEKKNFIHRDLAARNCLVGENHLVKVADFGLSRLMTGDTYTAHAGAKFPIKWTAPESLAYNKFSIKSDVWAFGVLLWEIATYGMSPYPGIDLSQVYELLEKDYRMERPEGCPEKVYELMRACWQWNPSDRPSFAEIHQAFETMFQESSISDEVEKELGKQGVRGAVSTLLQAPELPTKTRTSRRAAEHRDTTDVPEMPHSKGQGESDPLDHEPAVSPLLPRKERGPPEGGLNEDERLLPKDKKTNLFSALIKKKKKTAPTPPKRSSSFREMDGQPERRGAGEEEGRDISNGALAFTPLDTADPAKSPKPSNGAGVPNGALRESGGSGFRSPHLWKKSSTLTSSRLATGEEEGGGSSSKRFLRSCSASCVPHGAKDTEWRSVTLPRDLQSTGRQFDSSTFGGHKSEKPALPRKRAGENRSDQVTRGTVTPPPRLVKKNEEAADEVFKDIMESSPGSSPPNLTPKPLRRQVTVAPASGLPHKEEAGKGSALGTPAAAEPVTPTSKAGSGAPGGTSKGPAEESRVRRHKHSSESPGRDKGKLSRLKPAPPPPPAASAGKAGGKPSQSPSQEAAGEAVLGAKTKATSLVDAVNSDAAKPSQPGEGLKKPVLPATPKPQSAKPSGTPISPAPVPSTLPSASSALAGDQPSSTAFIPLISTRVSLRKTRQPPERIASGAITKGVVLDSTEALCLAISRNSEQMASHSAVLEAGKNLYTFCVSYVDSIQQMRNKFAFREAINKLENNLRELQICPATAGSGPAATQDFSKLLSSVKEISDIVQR

Turning to `Cc1cccc(F)c1N1Cc2cnc(N)nc2N([C@H]2CCCNCC2)C1=O` [Example 69, 7-amino-1-[(4S)-azepan-4-yl]-3-(2-fluoro-6-methyl-phenyl)-4H-pyrimido[4,5-d]pyrimidin-2-one], the Ki at SIK2 amounted to 0.0997 nM; on SIK1, 0.407 nM; on SIK3, 0.926 nM; at Abl, 19.7 nM; on Src it was 44.2 nM; on EPHA2 (50 or 100 μM ATP, average) it was 14.7 nM.

As to `Cc1cccc(F)c1N1Cc2cnc(N)nc2N([C@H]2CCCCNC2)C1=O` [Example 70, 7-amino-1-[(3S)-azepan-3-yl]-3-(2-fluoro-6-methyl-phenyl)-4H-pyrimido[4,5-d]pyrimidin-2-one], the Ki on SIK2 amounted to 0.278 nM; at SIK1, 0.907 nM; at SIK3, 5.92 nM; on Abl, 85.7 nM; at Src, 114 nM; at EPHA2 (50 or 100 μM ATP, average), 73.8 nM.

Regarding `Cc1cccc(F)c1N1Cc2cnc(N)nc2N([C@H]2CCCNC2)C1=O` [Example 71, 7-amino-3-(2-fluoro-6-methyl-phenyl)-1-[(3S)-3-piperidyl]-4H-pyrimido[4,5-d]pyrimidin-2-one], the Ki came out at 0.368 nM at SIK2; 1.26 nM on SIK1; 6.28 nM at SIK3; 104 nM at Abl; 391 nM at Src; 88.5 nM on EPHA2 (50 or 100 μM ATP, average).

`Cc1cccc(F)c1N1Cc2cnc(N)nc2N([C@@H]2CCCCNC2)C1=O` [Example 72, 7-amino-1-[(3R)-azepan-3-yl]-3-(2-fluoro-6-methyl-phenyl)-4H-pyrimido[4,5-d]pyrimidin-2-one]: the inhibitory constant (Ki) on SIK2 came to 1.14 nM; at SIK1 it was 1.93 nM; at SIK3 it was 21.1 nM; at Abl it was 19.8 nM; on Src it was 50.4 nM; on EPHA2 (50 or 100 μM ATP, average) it was 23.7 nM.

Consider `Cc1cccc(F)c1N1Cc2cnc(N)nc2N([C@@H]2CCCNC2)C1=O` [Example 73, 7-amino-3-(2-fluoro-6-methyl-phenyl)-1-[(3R)-3-piperidyl]-4H-pyrimido[4,5-d]pyrimidin-2-one], for which the Ki on SIK2 came to 0.94 nM; on SIK1, 1.3 nM; on SIK3 it was 9.92 nM; at Abl, 36.8 nM; on Src it was 77.2 nM; at EPHA2 (50 or 100 μM ATP, average) it was 56.6 nM.

As to `Cc1cccc(F)c1N1Cc2cnc(N)nc2N([C@H]2CC[C@@H](N)CC2)C1=O` [Example 74, 7-amino-1-(4-aminocyclohexyl)-3-(2-fluoro-6-methyl-phenyl)-4H-pyrimido[4,5-d]pyrimidin-2-one], the Ki was 0.356 nM on SIK2; 1.08 nM at SIK1; 1.98 nM at SIK3; 22.6 nM on Abl; 49 nM at Src; 16.3 nM at EPHA2 (50 or 100 μM ATP, average).

In the case of `Cc1cccc(F)c1N1Cc2cnc(N)nc2N(C2CCCC(N)C2)C1=O` (stereo not drawn) [Example 75, 7-amino-1-(3-aminocyclohexyl)-3-(2-fluoro-6-methyl-phenyl)-4H-pyrimido[4,5-d]pyrimidin-2-one], the Ki at SIK2 was 0.209 nM; on SIK1, 0.681 nM; on SIK3, 3.04 nM; on Abl, 13.8 nM; on Src it was 11.6 nM; on EPHA2 (50 or 100 μM ATP, average) it was 9.26 nM.

`Cc1cccc(F)c1N1Cc2cnc(N)nc2N(C2CCC(N)C2)C1=O` (stereo not drawn) [Example 76, 7-amino-1-(3-aminocyclopentyl)-3-(2-fluoro-6-methyl-phenyl)-4H-pyrimido[4,5-d]pyrimidin-2-one]: the Ki stood at 0.205 nM on SIK2; 0.612 nM on SIK1; 1.18 nM at SIK3; 4.22 nM on Abl; 29.2 nM on Src; 9.16 nM on EPHA2 (50 or 100 μM ATP, average).

Turning to `Cc1cccc(F)c1N1Cc2cnc(N)nc2N([C@H]2CC[C@H](N)CC2)C1=O` [Example 77, 7-amino-1-(4-aminocyclohexyl)-3-(2-fluoro-6-methyl-phenyl)-4H-pyrimido[4,5-d]pyrimidin-2-one], the Ki at SIK2 came out at 0.222 nM; on SIK1, 0.685 nM; on SIK3, 0.739 nM; on Abl, 27.7 nM; at Src it was 64.6 nM; at EPHA2 (50 or 100 μM ATP, average) it was 17.3 nM.

Turning to `Cc1cccc(F)c1N1Cc2cnc(N)cc2N([C@H]2CCNC2)C1=O` [Example 78, 7-amino-3-(2-fluoro-6-methyl-phenyl)-1-[(3S)-pyrrolidin-3-yl]-4H-pyrido[4,3-d]pyrimidin-2-one], the Ki at SIK2 is 1.62 nM; on SIK1, 1.28 nM; on SIK3 it was 15.4 nM; at Abl, above 1000 nM; at Src, above 1000 nM; on EPHA2 (50 or 100 μM ATP, average), above 1000 nM.

For the molecule `Cc1cccc(F)c1N1Cc2cnc(N)cc2N([C@H]2CCN(C)C2)C1=O` [Example 79, 7-amino-3-(2-fluoro-6-methyl-phenyl)-1-[(3S)-1-methylpyrrolidin-3-yl]-4H-pyrido[4,3-d]pyrimidin-2-one], the Ki is 6.5 nM on SIK2; 9.67 nM on SIK1; 85.4 nM on SIK3; 488 nM on Abl; above 10000 nM at Src; 164 nM on EPHA2.

As for `Cc1cccc(F)c1N1Cc2cnc(N)cc2N([C@@H]2CCN(C)C2)C1=O` [Example 80, 7-amino-3-(2-fluoro-6-methyl-phenyl)-1-[(3R)-1-methylpyrrolidin-3-yl]-4H-pyrido[4,3-d]pyrimidin-2-one], the inhibition constant (Ki) was 2.12 nM at SIK2; 3.2 nM on SIK1; 37.9 nM at SIK3; 352 nM on Abl; above 10000 nM on Src; 296 nM at EPHA2.

`Cc1cccc(F)c1N1Cc2cnc(N)cc2N([C@@H]2CCCN(C)C2)C1=O` [Example 81, 7-amino-3-(2-fluoro-6-methyl-phenyl)-1-[(3R)-1-methyl-3-piperidyl]-4H-pyrido[4,3-d]pyrimidin-2-one]: the Ki was determined as 0.522 nM at SIK2; 0.84 nM on SIK1; 5.04 nM at SIK3; 67.4 nM at Abl; 252 nM on Src; 45.2 nM on EPHA2 (50 or 100 μM ATP, average).

For the molecule `Cc1cccc(F)c1N1Cc2cnc(N)cc2N([C@H]2CCCN(C)C2)C1=O` [Example 82, 7-amino-3-(2-fluoro-6-methyl-phenyl)-1-[(3S)-1-methyl-3-piperidyl]-4H-pyrido[4,3-d]pyrimidin-2-one], the Ki on SIK2 was 0.498 nM; on SIK1, 1 nM; at SIK3, 5.89 nM; on Abl, above 1000 nM; on Src, 82.7 nM; at EPHA2 (50 or 100 μM ATP, average), 54.5 nM.

For `Cc1cccc(F)c1N1Cc2cnc(N)cc2N([C@@H]2CCCN(C)CC2)C1=O` [Example 84, 7-amino-3-(2-fluoro-6-methyl-phenyl)-1-[(4R)-1-methylazepan-4-yl]-4H-pyrido[4,3-d]pyrimidin-2-one], the Ki on SIK2 turned out to be 0.14 nM; on SIK1 it was 0.467 nM; at SIK3, 0.302 nM; on Abl it was 14.9 nM; on Src, 126 nM; on EPHA2 (50 or 100 μM ATP, average), 32.5 nM.

`Cc1cccc(F)c1N1Cc2cnc(N)cc2N([C@H]2CCCN(C)CC2)C1=O` [Example 86, 7-amino-3-(2-fluoro-6-methyl-phenyl)-1-[(4S)-1-methylazepan-4-yl]-4H-pyrido[4,3-d]pyrimidin-2-one]: the Ki on SIK2 turned out to be 0.592 nM; at SIK1, 1.86 nM; at SIK3, 6.15 nM; at Abl it was 94.7 nM; at Src, 644 nM; at EPHA2 (50 or 100 μM ATP, average) it was 502 nM.
